The values that follow come from patent publication US20210130339A1, “COMPOUNDS” (GLAXOSMITHKLINE INTELLECTUAL PROPERTY DEVELOPMENT LIMITED, priority 2017, published 2021).

Several values for one entry are separate records, joined by “and”; a condition that tells them apart may be missing. Equal values may be shown once. A value given as a limit tells only on which side of the number the result lay.

Assay [1] concerns the target T1, Full length G2019 human LRRK2 (Homo sapiens, UniProt Q5S007).
T1 construct: purified recombinant Full length Flag-LRRK2 in assay buffer; made in house; host or cells: HEK293 6E cells transduced with BacMam virus (virus generated in Sf9 cells)
The assay can be described thus: Full length G2019 human LRRK2 Inhibition Mass Spectrometry assay. The conditions noted are these: LRRKtide substrate, RapidFire mass spectrometry; read-out: pIC50 in the Full length G2019 human LRRK2 Inhibition Mass Spectrometry assay (converted). It is filed as biochemical. The method, then: a. Full Length G2019 Human LRRK2 Inhibition Mass Spectrometry Assay
This assay for Leucine Rich Repeat Kinase 2 (LRRK2) inhibition is based on the direct measurement of the peptide ‘LRRKtide’ (LRRKtide: RLGRDKYKT*LRQIRQ and “*” refers to the site of phosphorylation.) and phosphorylated ‘LRRKtide’ using a high throughput RapidFire mass spectrometry assay. Inhibitors are compounds that reduce the conversion of LRRKtide to phospho-LRRKtide.
HEK293 6E cells were incubated in a 37° C. incubator with a humidified atmosphere of 5% CO2 on an orbital shaker rotating at 110 rpm. On the day of transduction, the cell viability was higher than 98% and the cell density was in the range of 1×10^6˜1.5×10^6 cells/ml. HEK293 6E cells were centrifuged at 1,000 rpm for 10 min, and then the cells were resuspended in fresh Freestyle 293 expression medium (Invitrogen:12338) with 0.1% F-68 (Invitrogen:24040-032) but without antibiotics (G418) at density of 1×10^6 cells/ml. BacMam virus with Flag-hu LRRK2 (genotypically normal) gene was centrifuged at 40,000 g for 2 hours, then resuspended in fresh Freestyle 293 expression medium. The resuspended virus was added into the cells in at MOI of 10. The cells were incubated in a 37° C. incubator with a humidified atmosphere of 5% CO2 in air on an orbital shaker rotating at 110 rpm. Cultures were harvested at approximately 48 hours post-transduction by centrifugation at 4,000 rpm for 20 min and pellets were frozen for purification.
The suspended cells were lysed by sonication on ice for 30 min (2 secs on/4 sec off, 20% amplitude), and centrifuged at 10,000 rpm for 30 minutes at 4° C. The supernatant was incubated with 1 mL per litre of cell culture of anti-Flag magnetic beads (Sigma-Aldrich: M8823) at 4° C. for 3 hours, then the beads were washed by 5 mL (5 column volume) binding buffer (50 mM Tris pH7.5@ 4C, 500 mM NaCl, 0.5 mM EDTA, 0.1% TritonX-100, 10% glycerol, freshly add 2 mM DTT) for three times. The Flag tagged LRRK2 proteins were eluted by Elution buffer (50 mM Tris pH7.5@ 4C, 500 mM NaCl, 0.5 mM EDTA, 0.1% TritonX-100, 10% glycerol, freshly add 2 mM DTT, 250 ug/ml Flag peptide (Sigma-Aldrich:F3290)) at 4° C. for 2 hours. Flag peptide was removed by Zeba Spin Desalting Columns, 7K MWCO (Thermo-Fisher: 89893) and the buffer of eluted LRRK2 proteins was exchanged into Storage Buffer (50 mM Tris pH7.5@4C, 150 mM NaCl, 0.5 mM EDTA, 0.02% Triton X-100, 2 mM DTT and 50% Glycerol) using Amicon Ultra Centrifugal Filter Units (100 kD) (Merck: UFC910096). Fractions containing LRRK2 proteins were pooled, aliquoted and stored at −80° C. Protein concentration was determined by Bradford protein assay, and protein purity was analyzed by NuPAG Novex 4-12% Bis-Tris Protein Gels (Invitrogen: NP0322BOX).
• 1) A 10 mM test compound was dissolved in 100% DMSO and serially diluted 1 in 4. 100 nL of this dilution series was then added to a 384 well, v bottom polypropylene plate, excluding columns 6 and 18. 100 nL of DMSO was added to columns 6 and 18 as controls wells. Assay dilution gave a top final assay concentration of test compound of 100 μM • 2) 50 μl of 1% formic acid in laboratory grade water was added to column 18 using a multidrop combi dispenser to act as a pre stopped assay control. • 3) 5 μl of ‘enzyme solution’ containing 50 nM of purified recombinant Full length Flag-LRRK2 in assay buffer (50 mM Hepes (pH 7.2), 10 mM MgCl2, 150 mM NaCl, 5% glycerol, 0.0025% triton X-100 and 1 mM DTT) was added to all wells using a multidrop combi dispenser, giving a final assay concentration of 25 nM LRRK2 enzyme. […] Test plates were then incubated for 30 minutes at room temperature. • 4) 5 μl ‘substrate solution’ containing 50 uM LRRKtide peptide substrate and 4 mM ATP was added to all wells of the plate using a multidrop combi dispenser giving a final assay concentration of 25 uM LRRKtide and 2 mM ATP. Test plates were then incubated for 1 hour at room temperature. […]

Assay [2] deals with T2, recombinant full length LRRK2 (Homo sapiens, UniProt Q5S007).
T2 construct: A BacMam virus expressing full length recombinant LRRK2 was purchased from Invitrogen; host or cells: SH-SY5Y human neuroblastoma cells transduced with BacMam LRRK2 virus (MOI 50)
T2 sequence (Q5S007 whole entry): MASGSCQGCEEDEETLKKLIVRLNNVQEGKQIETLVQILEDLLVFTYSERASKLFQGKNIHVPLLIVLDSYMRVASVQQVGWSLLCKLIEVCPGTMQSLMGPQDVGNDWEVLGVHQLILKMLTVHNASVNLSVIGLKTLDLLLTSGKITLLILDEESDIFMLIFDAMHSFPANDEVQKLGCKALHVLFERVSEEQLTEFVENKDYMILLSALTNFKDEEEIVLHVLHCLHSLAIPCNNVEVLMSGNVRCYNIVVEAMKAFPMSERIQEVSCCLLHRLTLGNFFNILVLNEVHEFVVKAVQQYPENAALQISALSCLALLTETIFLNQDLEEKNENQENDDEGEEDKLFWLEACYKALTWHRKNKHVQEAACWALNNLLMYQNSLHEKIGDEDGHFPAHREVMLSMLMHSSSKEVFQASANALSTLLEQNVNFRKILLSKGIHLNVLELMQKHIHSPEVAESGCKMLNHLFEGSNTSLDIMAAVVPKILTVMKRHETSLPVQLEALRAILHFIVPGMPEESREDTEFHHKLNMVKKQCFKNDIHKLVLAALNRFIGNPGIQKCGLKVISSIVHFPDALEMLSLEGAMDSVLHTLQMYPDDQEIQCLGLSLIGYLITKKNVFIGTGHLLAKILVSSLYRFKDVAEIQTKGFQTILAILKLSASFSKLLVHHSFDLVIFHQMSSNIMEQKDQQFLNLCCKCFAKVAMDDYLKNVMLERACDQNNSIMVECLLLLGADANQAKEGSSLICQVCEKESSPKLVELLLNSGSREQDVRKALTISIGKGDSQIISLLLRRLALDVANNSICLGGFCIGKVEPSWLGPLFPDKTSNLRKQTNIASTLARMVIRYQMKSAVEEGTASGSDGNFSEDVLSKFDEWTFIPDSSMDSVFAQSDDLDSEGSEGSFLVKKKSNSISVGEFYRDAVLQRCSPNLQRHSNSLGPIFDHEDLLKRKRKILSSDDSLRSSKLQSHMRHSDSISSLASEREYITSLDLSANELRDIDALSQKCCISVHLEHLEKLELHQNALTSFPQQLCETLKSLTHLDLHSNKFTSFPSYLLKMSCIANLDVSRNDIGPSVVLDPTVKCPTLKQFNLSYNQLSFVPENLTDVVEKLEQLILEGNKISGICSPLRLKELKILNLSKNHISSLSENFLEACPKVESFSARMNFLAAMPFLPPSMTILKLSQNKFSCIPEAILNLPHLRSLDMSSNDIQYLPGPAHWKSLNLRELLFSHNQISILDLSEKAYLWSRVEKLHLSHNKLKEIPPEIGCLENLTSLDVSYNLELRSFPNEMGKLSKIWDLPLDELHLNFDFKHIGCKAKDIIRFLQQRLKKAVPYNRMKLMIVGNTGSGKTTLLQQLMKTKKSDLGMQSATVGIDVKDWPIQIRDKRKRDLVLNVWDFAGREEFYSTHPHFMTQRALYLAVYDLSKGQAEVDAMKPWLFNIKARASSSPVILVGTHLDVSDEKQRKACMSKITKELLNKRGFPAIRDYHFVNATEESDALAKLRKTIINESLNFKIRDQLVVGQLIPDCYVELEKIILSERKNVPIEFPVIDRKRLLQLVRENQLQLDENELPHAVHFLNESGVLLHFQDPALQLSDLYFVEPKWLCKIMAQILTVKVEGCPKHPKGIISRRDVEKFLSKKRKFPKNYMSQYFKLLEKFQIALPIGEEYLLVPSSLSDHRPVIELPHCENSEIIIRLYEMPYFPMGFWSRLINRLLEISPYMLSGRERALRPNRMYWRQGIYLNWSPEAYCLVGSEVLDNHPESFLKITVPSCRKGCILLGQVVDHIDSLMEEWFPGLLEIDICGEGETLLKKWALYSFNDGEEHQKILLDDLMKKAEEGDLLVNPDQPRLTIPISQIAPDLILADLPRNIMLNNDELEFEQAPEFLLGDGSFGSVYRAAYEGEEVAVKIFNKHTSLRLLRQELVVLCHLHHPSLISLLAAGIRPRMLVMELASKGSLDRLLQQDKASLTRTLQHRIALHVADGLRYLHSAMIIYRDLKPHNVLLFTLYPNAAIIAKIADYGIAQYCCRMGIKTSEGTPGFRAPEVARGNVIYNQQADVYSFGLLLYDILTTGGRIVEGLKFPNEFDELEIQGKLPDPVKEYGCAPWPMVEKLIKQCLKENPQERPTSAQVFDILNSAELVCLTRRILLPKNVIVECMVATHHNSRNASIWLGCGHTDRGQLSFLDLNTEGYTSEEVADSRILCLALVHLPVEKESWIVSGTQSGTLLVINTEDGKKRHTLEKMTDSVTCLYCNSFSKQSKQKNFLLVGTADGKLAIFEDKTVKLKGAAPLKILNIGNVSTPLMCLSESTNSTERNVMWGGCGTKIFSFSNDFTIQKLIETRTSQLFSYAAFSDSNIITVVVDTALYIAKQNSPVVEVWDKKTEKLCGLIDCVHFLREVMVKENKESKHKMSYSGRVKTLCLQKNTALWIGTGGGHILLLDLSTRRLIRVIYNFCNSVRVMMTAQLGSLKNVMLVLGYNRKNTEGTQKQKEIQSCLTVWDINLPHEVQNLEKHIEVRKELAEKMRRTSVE
The experiment in a line: Recombinant cellular LRRK2 AlphaScreen assay. It is filed as cell-based. The conditions noted are these: LRRK2 Ser935 phosphorylation, SH-SY5Y cells over-expressing recombinant full length LRRK2; read-out: pIC50 in the recombinant cellular LRRK2 AlphaScreen assay (converted). An excerpt:
b. Recombinant Cellular LRRK2 AlphaScreen Assay
To determine the activity of compounds against LRRK2 kinase activity in cells, the observed LRRK2 kinase-dependent modulation of LRRK2 Ser 935 phosphorylation (Dzamko et al., 2010, Biochem. J. 430: 405-413) was utilized to develop a quantitative 384 well plate-based immunoassay of LRRK2 Ser935 phosphorylation in the human neuroblastoma cell line SH-SY5Y, engineered to over-express recombinant full length LRRK2 protein. A BacMam virus expressing full length recombinant LRRK2 was purchased from Invitrogen and amplified by inoculation of SF-9 cells at MOI 0.3 for 4-5 days in Sf-900 III SFM medium supplemented with 3% fetal bovine serum. Infected cell cultures were then centrifuged at 2000 g for 20 minutes, viral supernatant titer determined by anti-gp64 plaque assay and stored at 4° C. Affinity-purified anti-phospho LRRK2 Ser935 sheep polyclonal antibody (Dzamko et al., 2010, Biochem. J. 430: 405-413) was biotinylated by standard methods (PerkinElmer). Anti-LRRK2 rabbit polyclonal antibody was purchased from Novus Biologicals. AlphaScreen Protein A IgG Kit (including acceptor and donor beads) was purchased from Perkin Elmer. SH-SY5Y cells were grown in DMEM/F12 medium with 10% dialysed fetal bovine serum and harvested by treatment with 0.5% trypsin-EDTA for 5 minutes at 37° C. followed by centrifugation at 1000 rpm for 4 minutes. The cell pellet was resuspended in Opti-MEM reduced serum media (Invitrogen) at 200,000 cells/ml and mixed with the BacMam LRRK2 virus at MOI=50. 50 μl cell solutions were then dispensed to each well of a 384-well plate and incubated at 37° C., 5% CO2 for 24 hours. Serial dilutions of test compounds were prepared in Opti-MEM reduced serum media (Invitrogen) and 5.6 ul transferred from compound plate to cell assay plate to achieve a top final assay concentration of 10 uM. DMSO was used in certain wells as controls. Cells were incubated at 37° C., 5% CO2 for 60 minutes. The medium was then removed and cells lysed by addition of 20 ul cell lysis buffer (Cell Signaling Technology) and incubation at 4° C. for 20 minutes. 10 ul of antibody/acceptor bead mix [(1/1000 biotinylated-pS935 LRRK2 antibody, 1/1000 total-LRRK2 antibody, 1/100 Acceptor beads in AlphaScreen detection buffer (25 mM Hepes (pH 7.4), 0.5% Triton X-100, 1 mg/ml Dextran 500 and 0.1% BSA)] was then added to each well and plates incubated for 2 hours at ambient temperature in the dark. 10 μl of donor beads solution (1/33.3 donor beads in AlphaScreen detection buffer) was then added to each well. Following incubation for a further 2 hours at ambient temperature in the dark, plates were read on an EnVision™ plate reader at emission 520-620 nm with excitation 680 nm. Dose response curve data was based on sigmoidal dose-response model.
For orientation: In Alpha technology, singlet oxygen from a donor bead excites a nearby acceptor bead.

T1 sequence (Q5S007 with tags, fused parts or gaps R50H): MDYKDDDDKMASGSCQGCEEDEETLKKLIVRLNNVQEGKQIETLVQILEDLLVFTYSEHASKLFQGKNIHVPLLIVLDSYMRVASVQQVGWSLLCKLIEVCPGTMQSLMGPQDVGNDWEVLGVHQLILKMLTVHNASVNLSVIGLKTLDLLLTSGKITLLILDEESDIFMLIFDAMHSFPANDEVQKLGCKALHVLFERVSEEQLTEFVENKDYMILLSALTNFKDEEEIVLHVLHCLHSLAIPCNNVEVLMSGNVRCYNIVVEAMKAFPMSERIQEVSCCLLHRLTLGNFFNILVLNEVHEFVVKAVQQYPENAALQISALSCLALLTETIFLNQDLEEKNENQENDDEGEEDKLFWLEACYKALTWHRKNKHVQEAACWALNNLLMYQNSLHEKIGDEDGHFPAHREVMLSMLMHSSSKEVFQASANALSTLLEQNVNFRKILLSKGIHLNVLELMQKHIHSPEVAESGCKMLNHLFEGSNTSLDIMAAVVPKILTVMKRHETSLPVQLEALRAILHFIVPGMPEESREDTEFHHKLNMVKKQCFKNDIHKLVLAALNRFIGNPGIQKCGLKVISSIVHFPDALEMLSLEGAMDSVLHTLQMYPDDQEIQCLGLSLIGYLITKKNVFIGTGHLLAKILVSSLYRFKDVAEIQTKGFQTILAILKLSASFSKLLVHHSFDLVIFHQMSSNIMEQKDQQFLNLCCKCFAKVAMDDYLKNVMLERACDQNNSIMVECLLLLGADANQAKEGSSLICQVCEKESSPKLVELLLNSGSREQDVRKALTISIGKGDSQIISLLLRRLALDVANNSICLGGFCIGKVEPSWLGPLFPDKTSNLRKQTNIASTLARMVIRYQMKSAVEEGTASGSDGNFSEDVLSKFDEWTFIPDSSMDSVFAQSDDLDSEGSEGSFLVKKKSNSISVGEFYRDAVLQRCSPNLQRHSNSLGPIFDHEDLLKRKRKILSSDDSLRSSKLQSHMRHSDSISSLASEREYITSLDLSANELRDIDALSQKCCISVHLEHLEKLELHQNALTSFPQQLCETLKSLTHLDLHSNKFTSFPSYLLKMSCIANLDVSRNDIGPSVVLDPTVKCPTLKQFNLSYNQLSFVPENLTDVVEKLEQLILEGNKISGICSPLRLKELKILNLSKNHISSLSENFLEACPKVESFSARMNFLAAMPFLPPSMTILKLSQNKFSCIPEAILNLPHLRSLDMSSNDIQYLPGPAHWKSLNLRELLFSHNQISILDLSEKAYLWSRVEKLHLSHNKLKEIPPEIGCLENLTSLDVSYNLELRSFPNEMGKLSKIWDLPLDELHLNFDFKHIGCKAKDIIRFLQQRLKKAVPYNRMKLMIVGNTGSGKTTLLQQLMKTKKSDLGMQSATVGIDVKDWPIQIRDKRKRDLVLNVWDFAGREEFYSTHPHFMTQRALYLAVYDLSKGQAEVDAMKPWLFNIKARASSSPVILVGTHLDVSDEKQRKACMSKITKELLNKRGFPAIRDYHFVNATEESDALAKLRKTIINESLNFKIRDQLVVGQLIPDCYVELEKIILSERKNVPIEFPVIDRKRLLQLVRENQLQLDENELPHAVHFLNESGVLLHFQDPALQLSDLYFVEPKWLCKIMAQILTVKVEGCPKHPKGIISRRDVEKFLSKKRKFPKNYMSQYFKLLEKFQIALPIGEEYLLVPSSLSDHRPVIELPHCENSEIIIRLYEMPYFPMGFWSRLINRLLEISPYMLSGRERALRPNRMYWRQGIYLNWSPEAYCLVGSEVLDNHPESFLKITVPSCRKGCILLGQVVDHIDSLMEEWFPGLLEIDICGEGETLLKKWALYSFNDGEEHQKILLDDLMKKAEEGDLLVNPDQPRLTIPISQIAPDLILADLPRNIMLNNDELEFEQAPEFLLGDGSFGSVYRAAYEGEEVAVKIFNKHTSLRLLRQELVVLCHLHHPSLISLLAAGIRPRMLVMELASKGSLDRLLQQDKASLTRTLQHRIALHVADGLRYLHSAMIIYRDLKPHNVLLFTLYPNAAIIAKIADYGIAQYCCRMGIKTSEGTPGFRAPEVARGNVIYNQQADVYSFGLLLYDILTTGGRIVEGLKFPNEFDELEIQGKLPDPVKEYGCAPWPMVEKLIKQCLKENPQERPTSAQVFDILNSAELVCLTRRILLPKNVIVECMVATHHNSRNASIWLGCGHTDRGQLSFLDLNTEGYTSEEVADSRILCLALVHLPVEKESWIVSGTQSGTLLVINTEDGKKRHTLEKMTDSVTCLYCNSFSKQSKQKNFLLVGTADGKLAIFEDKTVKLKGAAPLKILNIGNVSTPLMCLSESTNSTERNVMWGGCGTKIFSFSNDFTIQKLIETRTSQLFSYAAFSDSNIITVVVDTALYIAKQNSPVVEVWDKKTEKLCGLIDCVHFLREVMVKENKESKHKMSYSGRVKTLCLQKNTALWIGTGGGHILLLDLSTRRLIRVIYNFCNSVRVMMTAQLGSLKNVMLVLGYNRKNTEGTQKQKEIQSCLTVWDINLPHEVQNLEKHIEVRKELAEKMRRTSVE

With `Cc1nc(N2CCO[C@H](CO)C2)cc(-n2ncc3cc(C)c(C4CCN(C5CCOC5)CC4)cc32)n1` (single isomer, unassigned) [Example E1], the IC50 was 79.4 nM in assay [1]; ≤ 100 nM and 126 nM in assay [2].

Consider `Cc1nc(N2CCO[C@@H](CO)C2)cc(-n2ncc3cc(C)c(C4CCN([C@H]5CCOC5)CC4)cc32)n1` (single isomer, unassigned) [Example E4], for which the results for the IC50 in assay [1] and in assay [2] were 25.1 nM and 100 nM, respectively.

In the case of `Cc1nc(N2CC(O)C2)cc(-n2ncc3cc(C)c(C4CCN(C5CCOC5)CC4F)cc32)n1` (single isomer, unassigned) [Example E13, cis-1-(6-(6-(3-Fluoro-1-(tetrahydrofuran-3-yl)piperidin-4-yl)-5-methyl-1H-indazol-1-yl)-2-methylpyrimidin-4-yl)azetidin-3-ol], the figures for the IC50 in assay [1] and in assay [2] were no more than 1000 nM and no more than 100 nM, respectively.

`COc1nc(N2CC(O)C2)cc(-n2ncc3cc(Cl)c(C4CCN(C5CCOC5)CC4)cc32)n1` (single isomer, unassigned) [Example E30, 1-(6-(5-Chloro-6-(1-(tetrahydrofuran-3-yl)piperidin-4-yl)-1H-indazol-1-yl)-2-methoxy-pyrimidin-4-yl)azetidin-3-ol]: the IC50 in assay [1] is no more than 1000 nM; in assay [2], no more than 100 nM.

Regarding `[2H]C1(N2CCC(c3cc4c(cnn4-c4cc(N5CCO[C@H](CO)C5)nc(C)n4)cc3C)CC2)CCOC1` (single isomer, unassigned) [Example E33], the IC50 in assay [1] is no more than 1000 nM.

In the case of `[2H]C1(N2CCC(c3cc4c(cnn4-c4cc(N5CCO[C@H](CO)C5)nc(C)n4)cc3C)CC2)CCOC1` (single isomer, unassigned) [Example E34], the IC50 in assay [1] is ≤ 1000 nM and 63.1 nM; in assay [2], ≤ 100 nM and 100 nM.

For `Cc1nc(N2CCO[C@@H](CO)C2)cc(-n2ncc3cc(C)c(C4CCN(C5CCOC5)CC4F)cc32)n1` (single isomer, unassigned) [Example E102], the IC50 was no more than 100 nM in assay [1] and no more than 1000 nM in assay [2].

`Cc1nc(N2CCO[C@H](CO)C2)cc(-n2ncc3cc(C)c(C4CCN(C5CCOC5)CC4F)cc32)n1` (single isomer, unassigned) [Example E106]: the IC50 is no more than 100 nM in assay [1] and no more than 1000 nM in assay [2].

Turning to `Cc1nc(N2CCOC[C@H]2CO)cc(-n2ncc3cc(C)c(C4CCN(C5CCOC5)CC4)cc32)n1` (single isomer, unassigned) [Example E111], in assay [1], the IC50 was no more than 1000 nM.

Consider `Cc1nc(N2CCOC[C@@H]2CO)cc(-n2ncc3cc(C)c(C4CCN(C5CCOC5)CC4)cc32)n1` (single isomer, unassigned) [Example E113], for which the IC50 in assay [1] and in assay [2] was no more than 1000 nM each time.

Regarding `COc1nc(N2CCOCC2)cc(-n2ncc3cc(C)c(C4CCN(C5CCOC5)CC4F)cc32)n1` (single isomer, unassigned) [Example E115, Cis-4-(6-(6-(3-fluoro-1-(tetrahydrofuran-3-yl)-piperidin-4-yl)-5-methyl-1H-indazol-1-yl)-2-methoxypyrimidin-4-yl)morpholine], the IC50 in assay [1] and in assay [2] was no more than 10 nM throughout.

In the case of `Cc1nc(N2CC(C)(O)C2)cc(-n2ncc3cc(Cl)c(C4CCN(C5CCOC5)CC4)cc32)n1` (single isomer, unassigned) [Example E127, 1-(6-(5-chloro-6-(1-(tetrahydrofuran-3-yl)piperidin-4-yl)-1H-indazol-1-yl)-2-methyl-pyrimidin-4-yl)-3-methylazetidin-3-ol], the IC50 in assay [1] was no more than 100 nM.

In the case of `Cc1nc(OC2CC(O)C2)cc(-n2ncc3cc(C)c(C4CCN(C5CCOC5)CC4)cc32)n1` (single isomer, unassigned) [Example E146, 3-((2-methyl-6-(5-methyl-6-(1-(tetrahydrofuran-3-yl)piperidin-4-yl)-1H-indazol-1-yl)pyrimidin-4-yl)oxy)cyclobutanol], the IC50 in assay [1] was no more than 1000 nM.

Turning to `Cc1nc(N[C@@H]2CCOC2)cc(-n2ncc3cc(C)c(C4CCN(C5CCOC5)CC4)cc32)n1` (stereo partly drawn) [Example E143, 2-methyl-6-(5-methyl-6-(1-(tetrahydrofuran-3-yl)piperidin-4-yl)-1H-indazol-1-yl)-N—((R)-tetrahydrofuran-3-yl)pyrimidin-4-amine], the IC50 in assay [2] was no more than 1000 nM.

For the molecule `Cc1nc(N[C@H]2CCOC2)cc(-n2ncc3cc(C)c(C4CCN(C5CCOC5)CC4)cc32)n1` (stereo partly drawn) [Example E144, 2-methyl-6-(5-methyl-6-(1-(tetrahydrofuran-3-yl)piperidin-4-yl)-1H-indazol-1-yl)-N—((S)-tetrahydrofuran-3-yl)pyrimidin-4-amine], in assay [2], the IC50 was no more than 1000 nM.
